Results reported in publication PMC6009942, “Synthesis and molecular docking studies of some 4-phthalimidobenzenesulfonamide derivatives as acetylcholinesterase and butyrylcholinesterase inhibitors” (Journal of Enzyme Inhibition and Medicinal Chemistry, 2016).

How the values were obtained:
[1] = molecular target: T1, BuChE (E.C.3.1.1.8., from equine serum) (Equus caballus, UniProt P81908); assay: BuChE inhibition, modified Ellman colorimetric method; type: biochemical; settings: pH 8.0, 5-min incubation, mean ± SEM of triplicate independent experiments
T1 construct: BuChE (E.C.3.1.1.8., from equine serum); purchased Sigma-Aldrich (Steinheim, Germany); host or cells: equine serum
T1 sequence (P81908 whole entry): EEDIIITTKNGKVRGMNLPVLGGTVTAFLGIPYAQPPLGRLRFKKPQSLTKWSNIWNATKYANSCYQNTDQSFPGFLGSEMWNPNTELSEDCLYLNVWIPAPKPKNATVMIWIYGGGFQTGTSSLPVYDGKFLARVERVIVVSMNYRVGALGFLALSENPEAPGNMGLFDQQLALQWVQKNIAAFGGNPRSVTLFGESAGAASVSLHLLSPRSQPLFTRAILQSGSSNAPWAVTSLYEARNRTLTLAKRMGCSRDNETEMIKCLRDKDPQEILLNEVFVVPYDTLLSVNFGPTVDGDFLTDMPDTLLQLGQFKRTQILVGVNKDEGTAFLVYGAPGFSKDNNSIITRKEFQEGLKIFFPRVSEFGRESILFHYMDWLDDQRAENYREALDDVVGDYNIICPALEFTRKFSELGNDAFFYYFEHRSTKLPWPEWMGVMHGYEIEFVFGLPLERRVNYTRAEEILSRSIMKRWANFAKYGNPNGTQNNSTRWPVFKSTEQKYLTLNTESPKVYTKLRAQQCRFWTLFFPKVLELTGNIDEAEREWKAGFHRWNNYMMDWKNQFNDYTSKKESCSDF
Source text: (§1) AChE (E.C.3.1.1.7., Type VI-S, from electric eel) and BuChE (E.C.3.1.1.8., from equine serum) were purchased from Sigma-Aldrich (Steinheim, Germany). 5,5′-Dithiobis(2-nitrobenzoic acid) (DTNB, Ellman’s reagent) acetylthiocholine iodide (AChI) and butyrylthiocholine iodide (BChI) used as substrates were obtained from Fluka. Buffer compounds (potassium dihydrogen phosphate, potassium hydroxide) and sodium hydrogen carbonate were purchased from Merck (Darmstadt, Germany). Spectrophotometric measurements were performed on a Shimadzu 160-A UV-Vis spectrophotometer.
(§2) The inhibitory effects of the synthesized compounds on AChE and BuChE were evaluated using a slightly modified colorimetric method of Ellman et al., with galantamine as the reference compound[41–45]. Prior to use, all solutions were adjusted to 20 °C. Enzyme solution (100 μL) and inhibitor solution (100 μL) were added into a cuvette containing the phosphate buffer (3.0 mL, 0.1 M; pH 8.0). After 5-min incubation, required aliquots of the DTNB solution (100 μL) and of the AChI/BChI (20 μL) were added. After rapid and immediate mixing, the absorption was measured at 412 nm by UV spectroscopy. As a reference, an identical solution of the enzyme without the inhibitor is processed following the same protocol. The blank reading contained 3.0 mL buffer, 200 μL water, 100 μL DTNB and 20 μL substrate. The enzyme activity was determined in the presence of at least five different concentrations of an inhibitor. Each concentration was assayed in triplicate. The samples were investigated immediately after preparation.
(§3) Inhibitory activities of the synthesized compounds against AChE and BuChE were evaluated by modified Ellman method, using galantamine as the reference compound[41–45]. The AChE inhibitory activity was determined by using electric eel acetylcholinesterase and the BuChE inhibitory activity was tested by using equine serum butyrylcholinesterase.

[2] = molecular target: T2, AChE (E.C.3.1.1.7., Type VI-S, from electric eel) (Electrophorus electricus, UniProt O42275); assay: AChE inhibition, modified Ellman colorimetric method; type: biochemical; settings: pH 8.0, 5-min incubation, mean ± SEM of triplicate independent experiments
T2 construct: purchased Sigma-Aldrich (Steinheim, Germany) Type VI-S
T2 sequence (O42275 24-633): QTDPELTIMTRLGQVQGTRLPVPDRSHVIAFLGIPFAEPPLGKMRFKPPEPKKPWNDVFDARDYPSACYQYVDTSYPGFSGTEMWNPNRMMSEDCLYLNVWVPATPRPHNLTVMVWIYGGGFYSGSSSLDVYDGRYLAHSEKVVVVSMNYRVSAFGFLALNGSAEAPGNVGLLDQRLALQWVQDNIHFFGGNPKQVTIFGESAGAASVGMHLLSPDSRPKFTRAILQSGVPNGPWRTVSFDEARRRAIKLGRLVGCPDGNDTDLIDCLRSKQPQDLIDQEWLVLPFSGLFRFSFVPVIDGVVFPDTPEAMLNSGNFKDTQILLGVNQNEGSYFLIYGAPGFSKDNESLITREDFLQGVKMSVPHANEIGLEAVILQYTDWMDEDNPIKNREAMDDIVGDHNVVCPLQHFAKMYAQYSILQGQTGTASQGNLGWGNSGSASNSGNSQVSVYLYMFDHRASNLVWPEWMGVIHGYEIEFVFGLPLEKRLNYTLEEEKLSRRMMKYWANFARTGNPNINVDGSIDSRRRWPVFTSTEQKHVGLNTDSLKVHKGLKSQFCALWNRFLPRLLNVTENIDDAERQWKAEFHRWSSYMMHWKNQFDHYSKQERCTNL
Source text: as §1, §2, §3

With `O=C1c2ccccc2C(=O)N1c1ccc(S(=O)(=O)Nc2ccc(Cl)cc2)cc1` [Compound 6, 4-(1,3-Dioxoisoindolin-2-yl)-N-(4-chlorophenyl)benzenesulfonamide] the IC50 [1] was 78.1 ± 5.39 µM and the IC50 [2] was 8.21 ± 0.14 µM.

`O=C1c2ccccc2C(=O)N1c1ccc(S(=O)(=O)N2CCCCC2)cc1` [Compound 9, 2-(4-(Piperidin-1-ylsulfonyl)phenyl)isoindoline-1,3-dione] was tested, and the IC50 [1] was over 100 µM and the IC50 [2] was 10.4 ± 0.61 µM.

`CC1CCCCN1S(=O)(=O)c1ccc(N2C(=O)c3ccccc3C2=O)cc1` (stereo not shown) [Compound 10, 2-(4-((2-Methylpiperidin-1-yl)sulfonyl)phenyl)isoindoline-1,3-dione] gave an IC50 [1] of 75.2 ± 23.8 µM and an IC50 [2] of 8.05 ± 0.54 µM.

`O=C1c2ccccc2C(=O)N1c1ccc(S(=O)(=O)N2CCCC2)cc1` [Compound 8, 2-(4-(Pyrrolidin-1-ylsulfonyl)phenyl)isoindoline-1,3-dione] gave an IC50 [1] of over 100 µM and an IC50 [2] of over 100 µM.

Molecule `O=C1c2ccccc2C(=O)N1c1ccc(S(=O)(=O)N2CCOCC2)cc1` [Compound 11, 2-(4-(Morpholinosulfonyl)phenyl)isoindoline-1,3-dione] has an IC50 [1] of 56.7 ± 3.26 µM and an IC50 [2] of 7.95 ± 0.22 µM.

With `COc1ccc(NS(=O)(=O)c2ccc(N3C(=O)c4ccccc4C3=O)cc2)cc1` [Compound 5, 4-(1,3-Dioxoisoindolin-2-yl)-N-(4-methoxyphenyl)benzenesulfonamide] the IC50 [1] was 87.2 ± 13.2 µM and the IC50 [2] was 8.52 ± 0.18 µM.

With `Cc1ccc(NS(=O)(=O)c2ccc(N3C(=O)c4ccccc4C3=O)cc2)cc1` [Compound 4, 4-(1,3-Dioxoisoindolin-2-yl)-N-(p-tolyl)benzenesulfonamide] the IC50 [1] was 85 ± 13.7 µM and the IC50 [2] was 8.61 ± 0.18 µM.

In the case of `CCN(CC)S(=O)(=O)c1ccc(N2C(=O)c3ccccc3C2=O)cc1` [Compound 7, 4-(1,3-Dioxoisoindolin-2-yl)-N,N-diethylbenzenesulfonamide], the IC50 [1] is reported as over 100 µM and the IC50 [2] is reported as 1.35 ± 0.08 µM.

In the case of `CC(C)c1ccccc1NS(=O)(=O)c1ccc(N2C(=O)c3ccccc3C2=O)cc1` [Compound 3, 4-(1,3-Dioxoisoindolin-2-yl)-N-(2-isopropylphenyl)benzenesulfonamide], the IC50 [1] is reported as 13.4 ± 0.62 µM and the IC50 [2] is reported as 8.19 ± 0.13 µM.

For `Cc1ccccc1NS(=O)(=O)c1ccc(N2C(=O)c3ccccc3C2=O)cc1` [Compound 1, 4-(1,3-Dioxoisoindolin-2-yl)-N-(o-tolyl)benzenesulfonamide], the IC50 [1] was 74.4 ± 2.34 µM and the IC50 [2] was 6.84 ± 0.17 µM.

`COc1ccccc1NS(=O)(=O)c1ccc(N2C(=O)c3ccccc3C2=O)cc1` [Compound 2, 4-(1,3-Dioxoisoindolin-2-yl)-N-(2-methoxyphenyl)benzenesulfonamide] gave an IC50 [1] of 44.2 ± 13.4 µM and an IC50 [2] of 6.79 ± 0.41 µM.
